The experiment addresses Human Leukocyte Lipoxygenase. As to the kind of experiment: Human Leukocyte Lipoxygenase Assay (LDA-H). The class given is biochemical. The conditions noted are these: for IC50: acetone-pentane powder enzyme, 234 nm, 24° C., 5 min preincubation, read-out: Concentration (M) for 50.0 % Inhibition, IC (LDAH); for % Inhibition (LDAH): Concentration 2.50 E -5 M. Summed up:
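Enzyme from acetone-pentane powder of human buffy-coat leukocytes, extracted in 0.1M Tris pH 7.4. Compound preincubated 5 min with enzyme, then reaction started with arachidonic or linoleic acid (100 μM or 1.0 μM) and followed at 234 nm (conjugated diene) at 24° C. IC50 is molar concentration halving control rate.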

Take `O=C(Nc1ccc(CCc2ccc(Cl)cc2)cc1)C1CS(=O)(=O)c2ccccc2C1=O` (centres unmarked) [Example 54, N-[4-[2-(4-Chlorophenyl)ethyl]phenyl]-3,4-dihydro-4-oxo-2H-1-benzothiopyran-3-carboxamide, 1,1-dioxide]: the IC50 worked out at 3.5e-06 M.

Regarding `COc1ccc(CCc2ccc(NC(=O)c3sc4ccccc4c3O)cc2)cc1OC` [Example 143, Benzo[b]thiophene-2-carboxamide, N-[4-[2-(3,4-dimethoxphenyl)ethyl]phenyl]-3-hydroxy], the IC50 is 4.4e-06 M.

`COc1ccc(CCc2ccc(NC(=O)C3CS(=O)(=O)c4ccccc4C3=O)cc2)cc1` (centres unmarked) [Example 41]: the IC50 amounted to 4.5e-05 M.

For `O=C(Nc1ccc(CCc2ccc(-c3ccccc3)cc2)cc1)C1CS(=O)(=O)c2ccccc2C1=O` (centres unmarked) [Example 46, N-[4-[2-([1,1'-biphenyl]-4-yl)ethyl]phenyl]-3,4-dihydro-4-oxo-2H-1-benzothiopyran-3-carboxamide, 1,1-dioxide], the IC50 stood at 1.1e-05 M.

For the compound `CCCCCCCCCCc1ccc(NC(=O)C2CS(=O)(=O)c3ccccc3C2=O)cc1` (centres unmarked) [Example 60, N-(4-Decylphenyl)-3,4-dihydro-4-oxo-2H-1-benzoothiopyran-3-carboxamide, 1,1-dioxide], the IC50 amounted to 2.5e-05 M.

Turning to `CCCCOc1ccc(CCc2ccc(NC(=O)C3CS(=O)(=O)c4ccccc4C3=O)cc2)cc1` (centres unmarked) [Example 48], the “% Inhibition (LDAH)” value was found to be 0.0%.

Regarding `O=C(Nc1ccc(CCc2ccc3ccccc3c2)cc1)C1=C(O)c2ccccc2S(=O)(=O)C1` [Example 51, 4-Hydroxy-N-[4-[2-(2-naphthalenyl)ethyl]phenyl]-2H-1-benzothiopyran-3-carboxamide, 1,1-dioxide], the “% Inhibition (LDAH)” value turned out to be 0.0%.

`O=C(Nc1ccc(CCc2ccccc2)cc1)C1CS(=O)(=O)c2ccccc2C1=O` (centres unmarked) [Example 16, 3,4-Dihydro-4-oxo-N-[(4-(2-phenyl)ethyl]-phenyl]-2H-1-benzothiopyran-3-carboxamide, 1,1-dioxide]: the IC50 is 5.1e-05 M.

These data come from US4868195A, “Novel enolamides, pharmaceutical compositions and methods of use thereof for activity as modulators of the arachidonic acid cascade” (Warner-Lambert Company, priority 1988, dated 1989).
